Measurements published in publication PMC6270601, “Dimeric Labdane Diterpenes: Synthesis and Antiproliferative Effects” (Molecules, 2013).

Experiments:
[1] = tested on: J82 bladder carcinoma cells; experiment: Antiproliferative assay (MTT reduction), J82 bladder carcinoma cells; type: cell-based, human; details: for IC50: Homo sapiens, 72 h, J82 bladder carcinoma, 3 days treatment, MTT reduction, mean ± SD, >100 µM considered inactive; for antiproliferative activity against J82 (in words): up to 100 µM
Method: (§1) All human cell lines used in this work were purchased from the American Type Culture Collection (ATCC, Manasas, VA, USA). […] Promyelocytic leukemia HL-60 cells (CCL-240) were grown in suspension in RPM1 medium containing 1 mM sodium pyruvate and 2.0 g/L sodium bicarbonate. All media were supplemented with 10% heat-inactivated FBS, 100 IU/mL penicillin and 100 µg/mL streptomycin. Cells were grown in a humidified incubator with 5% CO2 in air at 37 °C. For the antiproliferative assay, adherent cells were plated at a density of 5 × 10^4 cells/mL and HL-60 cells at 30 × 10^4 cells/mL. Cells were seeded in 96-well plates (100 µL/well). One day after seeding, cells were treated with medium containing the compounds at concentrations ranging from 0 up to 100 µM during 3 days. The compounds were dissolved in DMSO (1% final concentration) and complete medium. Untreated cells (medium containing 1% DMSO) were used as 100% viability controls. […] Each concentration was tested in sextuplicate and experiments were repeated 2 times. Cell viability was determined by means of the MTT reduction assay at the end of the incubation with the products.

[2] = tested on: SK-MES-1 lung cancer cells; experiment: Antiproliferative assay (MTT reduction), SK-MES-1 lung cancer cells; type: cell-based, human; details: for IC50: Homo sapiens, 72 h, SK-MES-1 lung cancer cells, 3 days treatment, MTT reduction, mean ± SD, >100 µM considered inactive; for antiproliferative activity against SK-MES-1 (in words): up to 100 µM
Method: as §1

HL-60 cells = experiment: Antiproliferative assay (MTT reduction), HL-60 promyelocytic leukemia cells; type: cell-based, human; details: for IC50: Homo sapiens, 72 h, HL-60 promyelocytic leukemia, 3 days treatment, MTT reduction, mean ± SD, >100 µM considered inactive; for antiproliferative activity against HL-60 (in words): up to 100 µM
Method: as §1

AGS cells = experiment: Antiproliferative assay (MTT reduction), AGS gastric adenocarcinoma cells; type: cell-based, human; details: for IC50: Homo sapiens, 72 h, AGS gastric adenocarcinoma, 3 days treatment, MTT reduction, mean ± SD, >100 µM considered inactive; for antiproliferative activity against AGS (in words): up to 100 µM
Method: (§2) The compounds 1–20 were assessed for antiproliferative effect towards human lung fibroblasts (MRC-5) and the following human tumor cell lines: gastric adenocarcinoma (AGS), lung cancer cells (SK-MES-1), bladder carcinoma (J82) and promyelocytic leukemia (HL-60).
(§3) All human cell lines used in this work were purchased from the American Type Culture Collection (ATCC, Manasas, VA, USA). Normal lung MRC-5 fibroblasts (CCL-171), SK-MES-1 lung cancer cells (HTB-58) and J82 bladder carcinoma cells (HTB-1) were grown as monolayers in minimum essential Eagle medium (MEM) with Earles’s salts, 2 mM L-glutamine and 1.5 g/L sodium bicarbonate. Gastric adenocarcinoma AGS cells (CRL-1739) were grown as monolayers in Ham F-12 medium containing 1 mM L-glutamine and 1.5 g/L sodium bicarbonate. Promyelocytic leukemia HL-60 cells (CCL-240) were grown in suspension in RPM1 medium containing 1 mM sodium pyruvate and 2.0 g/L sodium bicarbonate. All media were supplemented with 10% heat-inactivated FBS, 100 IU/mL penicillin and 100 µg/mL streptomycin. Cells were grown in a humidified incubator with 5% CO2 in air at 37 °C. For the antiproliferative assay, adherent cells were plated at a density of 5 × 10^4 cells/mL and HL-60 cells at 30 × 10^4 cells/mL. Cells were seeded in 96-well plates (100 µL/well). One day after seeding, cells were treated with medium containing the compounds at concentrations ranging from 0 up to 100 µM during 3 days. The compounds were dissolved in DMSO (1% final concentration) and complete medium. Untreated cells (medium containing 1% DMSO) were used as 100% viability controls. […] Each concentration was tested in sextuplicate and experiments were repeated 2 times. Cell viability was determined by means of the MTT reduction assay at the end of the incubation with the products. The results were transformed to percentage of controls and the IC50 values were graphically obtained from the dose-response curves.

MRC-5 normal fibroblasts = experiment: Antiproliferative assay (MTT reduction), MRC-5 normal lung fibroblasts; type: cell-based, human; details: for IC50: Homo sapiens, MRC5, 72 h, MRC-5 normal fibroblasts, 3 days treatment, MTT reduction, mean ± SD, >100 µM considered inactive; for antiproliferative activity against MRC-5 (in words): up to 100 µM
Method: as §1

[3] = tested on: MRC-5, AGS, SK-MES-1, J82 and HL-60 cell lines; experiment: Antiproliferative assay, panel of five human cell lines (summary in words); type: cell-based; details: SK-MES-1, J82, HL-60, up to 100 µM
Method: as §2, §3

Row | Structure (SMILES) | IC50 [1] | IC50 [2] | IC50 (HL-60 cells) | IC50 (AGS cells) | IC50 (MRC-5 normal fibroblasts) | antiproliferative effect on the five cell lines (in words) [3] | antiproliferative activity against J82 (in words) [1] | antiproliferative activity against SK-MES-1 (in words) [2] | antiproliferative activity against HL-60 (in words) (HL-60 cells) | antiproliferative activity against AGS (in words) (AGS cells) | antiproliferative activity against MRC-5 (in words) (MRC-5 normal fibroblasts)
1 | C=C1CCC2[C@](C)(CCC[C@]2(C)C(=O)OC)[C@H]1CC[C@@H](C)CCn1cc(CO)nn1 (some centres unmarked) [Compound 4, 15-(4-(Hydroxymethyl)-1H-1,2,3-triazol-1-yl)-imbricatolic acid methyl ester] | 60.7 ± 4.6 µM | 67.7 ± 3.1 µM | > 100 µM | 41.5 ± 2.1 µM | 77.4 ± 3.9 µM |  |  |  |  |  | 
2 | C=C1CCC2[C@](C)(CCC[C@]2(C)C(=O)OC)[C@H]1CC[C@@H](C)CCn1cc(CCC(=O)O)nn1 (some centres unmarked) [Compound 6, 15-(4-(2-Carboxyethyl)-1H-1,2,3-triazol-1-yl)-imbricatolic acid methyl ester] | > 100 µM | > 100 µM | > 100 µM | > 100 µM | > 100 µM | no antiproliferative effect on any of the cell lines |  |  |  |  | 
3 | C=C1CCC2[C@](C)(CCC[C@]2(C)C(=O)OC)[C@H]1CC[C@@H](C)CCOCC[C@H](C)CC[C@H]1C(=C)CCC2[C@]1(C)CCC[C@]2(C)C(=O)OC (some centres unmarked) [Compound 7] | > 100 µM | > 100 µM | > 100 µM | > 100 µM | > 100 µM | no antiproliferative effect |  |  |  |  | 
4 | C=C1CCC2[C@](C)(CCC[C@]2(C)C(=O)OC)[C@H]1CC[C@@H](C)CCOCCCCCOCC[C@H](C)CC[C@H]1C(=C)CCC2[C@]1(C)CCC[C@]2(C)C(=O)OC (some centres unmarked) [Compound 9] | > 100 µM | 67.5 ± 6.9 µM | 32.6 ± 2.3 µM | 17.8 ± 1.3 µM | 68.1 ± 3.4 µM |  |  |  |  |  | 
5 | C=C1CCC2[C@](C)(CCC[C@]2(C)C(=O)OC)[C@H]1CC[C@@H](C)CCOCCCCCCCCCOCC[C@H](C)CC[C@H]1C(=C)CCC2[C@]1(C)CCC[C@]2(C)C(=O)OC (some centres unmarked) [Compound 10] | > 100 µM | 67.9 ± 5.4 µM | > 100 µM | > 100 µM | > 100 µM |  |  |  |  |  | 
6 | C=C1CCC2[C@](C)(CCC[C@]2(C)C(=O)O)[C@H]1CC[C@@H](C)CC(=O)OCC[C@H](C)CC[C@H]1C(=C)CCC2[C@]1(C)CCC[C@]2(C)C(=O)OC (some centres unmarked) [Compound 11] | > 100 µM | > 100 µM | 80.3 ± 5.9 µM | 26.1 ± 2.2 µM | 71.2 ± 5.3 µM |  | not against SK-MES-1 and J82 cells | not against SK-MES-1 and J82 cells | showed activity | showed activity | showed activity
7 | C=C1CCC2[C@](C)(CCC[C@]2(C)C(=O)OC)[C@H]1CC[C@@H](C)CCOC(=O)C[C@H](C)CC[C@H]1C(=C)CCC2[C@]1(C)CCC[C@]2(C)C(=O)OC (some centres unmarked) [Compound 12] | 61.4 ± 3.1 µM | 38.5 ± 2.8 µM | > 100 µM | > 100 µM | > 100 µM |  | showed effect | showed effect | devoid of activity | devoid of activity | devoid of activity
8 | C=C1CCC2[C@](C)(CCC[C@]2(C)C(=O)OC)[C@H]1CC[C@@H](C)CCOC(=O)CCC(=O)OCC[C@H](C)CC[C@H]1C(=C)CCC2[C@]1(C)CCC[C@]2(C)C(=O)OC (some centres unmarked) [Compound 13] | 72.1 ± 4.3 µM | 68.2 ± 4.5 µM | 60.8 ± 4.2 µM | 62.9 ± 3.9 µM | 76.8 ± 5.4 µM |  |  |  |  |  | 
9 | C=C1CCC2[C@](C)(CCC[C@]2(C)C(=O)OC)[C@H]1CC[C@@H](C)CCOC(=O)c1ccccc1C(=O)OCC[C@H](C)CC[C@H]1C(=C)CCC2[C@]1(C)CCC[C@]2(C)C(=O)OC (some centres unmarked) [Compound 14] | > 100 µM | > 100 µM | 55.6 ± 3.9 µM | 51.7 ± 2.8 µM | 76.3 ± 5.8 µM |  |  |  |  |  | 
10 | C=C1CCC2[C@](C)(CCC[C@]2(C)C(=O)O)[C@H]1CC[C@@H](C)CC(=O)OCc1cn(CC[C@H](C)CC[C@H]2C(=C)CCC3[C@]2(C)CCC[C@]3(C)C(=O)OC)nn1 (some centres unmarked) [Compound 15] | 84.7 ± 6.8 µM | 56 ± 4.5 µM | 44.1 ± 4.1 µM | 39.4 ± 2.4 µM | > 100 µM |  |  |  |  |  | 
11 | C=C1CCC2[C@](C)(CCC[C@]2(C)C(=O)OC)[C@H]1CC[C@@H](C)CCn1cc(COC(=O)C[C@H](C)CC[C@H]2C(=C)CCC3[C@]2(C)CCC[C@]3(C)C(=O)OC)nn1 (some centres unmarked) [Compound 16] | > 100 µM | > 100 µM | > 100 µM | > 100 µM | > 100 µM |  |  |  |  |  | 

More lines, main results first:

Row | IC50 [1] | IC50 [2] | IC50 (HL-60 cells) | IC50 (AGS cells) | Structure (SMILES) | IC50 (MRC-5 normal fibroblasts) | antiproliferative effect on the five cell lines (in words) [3] | antiproliferative activity against J82 (in words) [1] | antiproliferative activity against SK-MES-1 (in words) [2] | antiproliferative activity against HL-60 (in words) (HL-60 cells) | antiproliferative activity against AGS (in words) (AGS cells) | antiproliferative activity against MRC-5 (in words) (MRC-5 normal fibroblasts)
12 | 63.7 ± 2.6 µM | 59.7 ± 2.4 µM | 47.5 ± 3.9 µM | 38.5 ± 1.6 µM | C=C1CCC2[C@](C)(CCC[C@]2(C)C(=O)OC)[C@H]1CC[C@@H](C)CCO (some centres unmarked) [Compound 1, 15-Hydroxyimbricatolic acid methyl ester] | 77.7 ± 4 µM |  |  |  |  |  | 
13 | > 100 µM | > 100 µM | > 100 µM | > 100 µM | C=C1CCC2[C@](C)(CCC[C@]2(C)C(=O)O)[C@H]1CC[C@@H](C)CC(=O)O (some centres unmarked) [Compound 2, Labd-8(17)-en-15,19-dioic acid] | > 100 µM | no antiproliferative effect on any of the cell lines |  |  |  |  | 
14 | > 100 µM | 67.6 ± 3.4 µM | 22.3 ± 3.1 µM | 73.8 ± 5.2 µM | C=C1CCC2[C@](C)(CCC[C@]2(C)C(=O)OC)[C@H]1CC[C@@H](C)CCN=[N+]=[N-] (some centres unmarked) [Compound 3, 15-Azidoimbricatolic acid methyl ester] | 91.8 ± 6.4 µM |  |  |  |  |  | 
15 | 56.2 ± 3.9 µM | 57.2 ± 3.4 µM | 48.9 ± 4.5 µM | 54.8 ± 3.3 µM | C=C1CCC2[C@](C)(CCC[C@]2(C)C(=O)OC)[C@H]1CC[C@@H](C)CCn1cc(CCO)nn1 (some centres unmarked) [Compound 5, 15-(4-(2-Hydroxyethyl)-1H-1,2,3-triazol-1-yl)-imbricatolic acid methyl ester] | 75.8 ± 5.3 µM |  |  |  |  |  | 
16 | > 100 µM | > 100 µM | 57.8 ± 4.1 µM | 70.3 ± 6.3 µM | C=C1CCC2[C@](C)(CCC[C@]2(C)C(=O)OC)[C@H]1CC[C@@H](C)CCOCCCCOCC[C@H](C)CC[C@H]1C(=C)CCC2[C@]1(C)CCC[C@]2(C)C(=O)OC (some centres unmarked) [Compound 8] | > 100 µM |  |  |  |  |  | 
17 | 34.6 ± 2.5 µM | 67.5 ± 4.9 µM | 23.2 ± 3.1 µM | 23.4 ± 1.4 µM | C=C1CCC2[C@](C)(CCC[C@]2(C)C(=O)O)[C@H]1CC[C@@H](C)CC(=O)OCCc1cn(CC[C@H](C)CC[C@H]2C(=C)CCC3[C@]2(C)CCC[C@]3(C)C(=O)OC)nn1 (some centres unmarked) [Compound 17] | 79.6 ± 5.1 µM |  |  |  |  |  | 
18 | > 100 µM | > 100 µM | > 100 µM | > 100 µM | C=C1CCC2[C@](C)(CCC[C@]2(C)C(=O)OC)[C@H]1CC[C@@H](C)CCn1cc(CCOC(=O)C[C@H](C)CC[C@H]2C(=C)CCC3[C@]2(C)CCC[C@]3(C)C(=O)OC)nn1 (some centres unmarked) [Compound 18] | > 100 µM |  |  |  |  |  | 
19 |  |  |  | 0.58 ± 0.02 µM | COc1cc([C@@H]2c3cc4c(cc3[C@@H](O[C@@H]3O[C@@H]5CO[C@@H](C)O[C@H]5[C@H](O)[C@H]3O)[C@H]3COC(=O)[C@H]23)OCO4)cc(OC)c1O [Etoposide, reference compound] |  |  |  |  |  |  | 
